Experimental data from ChEMBL document CHEMBL4020737, “Synthesis and cytotoxic activity of new artemisinin hybrid molecules against human leukemia cells” (Bioorg Med Chem, 2017).
Calls of active or inactive are those of the source. The rule behind the calls is not given here.

Experiments:
ADR5000 cell line [1] = assay: Cytotoxicity against human CEM/ADR5000 cells assessed as reduction in cell viability after 72 hrs by resazurin reduction assay; assay type: functional, cell-based; details: ADR5000, 72 h
CCRF-CEM = assay: Cytotoxicity against human CCRF-CEM cells assessed as reduction in cell viability after 72 hrs by resazurin reduction assay; assay type: functional, cell-based
[2] = Resistance index, ratio of IC50 for human CEM/ADR5000 cells to IC50 for human CCRF-CEM cells; assay type: functional
ADR5000 cell line [3] = assay: Cytotoxicity against human CEM/ADR5000 cells assessed as reduction in cell viability at 400 uM after 72 hrs by resazurin reduction assay; assay type: functional, cell-based

## COC(=O)CC[C@@H](C)[C@H]1CC[C@H]2[C@@H]3[C@H](OC(C)=O)C[C@@H]4C[C@@H](OC(=O)C[C@H]5O[C@@H]6O[C@@]7(C)CC[C@H]8[C@H](C)CC[C@@H]([C@H]5C)[C@@]68OO7)CC[C@]4(C)[C@H]3C[C@H](OC(C)=O)[C@]12C
ADR5000 cell line [1]
  IC50: 1290 nM
CCRF-CEM
  IC50: 28 nM
[2]
  Ratio IC50: 46.1

## COC(=O)CC[C@@H](C)[C@H]1CC[C@H]2[C@@H]3[C@H](OC(C)=O)C[C@@H]4C[C@H](NC(=O)C[C@H]5O[C@@H]6O[C@@]7(C)CC[C@H]8[C@H](C)CC[C@@H]([C@H]5C)[C@@]68OO7)CC[C@]4(C)[C@H]3C[C@H](OC(C)=O)[C@]12C
ADR5000 cell line [1]
  IC50: 345 nM
CCRF-CEM
  IC50: 19 nM
[2]
  Ratio IC50: 18.2

## COC(=O)CC[C@@H](C)[C@H]1CC[C@H]2[C@@H]3[C@H](OC(C)=O)C[C@@H]4C[C@H](NC(=O)CCC(=O)O[C@@H]5O[C@@H]6O[C@@]7(C)CC[C@H]8[C@H](C)CC[C@@H]([C@H]5C)[C@@]68OO7)CC[C@]4(C)[C@H]3C[C@H](OC(C)=O)[C@]12C
ADR5000 cell line [1]
  IC50: 655 nM
CCRF-CEM
  IC50: 36 nM
[2]
  Ratio IC50: 18.2

## CC(=O)O[C@H]1C[C@H]2[C@@H]([C@H](OC(C)=O)C[C@@H]3CC(=O)CC[C@@]32C)[C@@H]2CC[C@H]([C@H](C)CCC(=O)OCCC[C@H]3O[C@@H]4O[C@@]5(C)CC[C@H]6[C@H](C)CC[C@@H]([C@H]3C)[C@@]46OO5)[C@@]12C
ADR5000 cell line [1]
  IC50: 7160 nM
CCRF-CEM
  IC50: 192 nM
[2]
  Ratio IC50: 37.3

## C[C@H]1[C@@H](CCCO)O[C@@H]2O[C@@]3(C)CC[C@H]4[C@H](C)CC[C@@H]1[C@@]24OO3
ADR5000 cell line [3]
  Activity: inactive

## COC(=O)CC[C@@H](C)[C@H]1CC[C@H]2[C@@H]3[C@H](OC(C)=O)C[C@@H]4C[C@H](OC(=O)C[C@H]5O[C@@H]6O[C@@]7(C)CC[C@H]8[C@H](C)CC[C@@H]([C@H]5C)[C@@]68OO7)CC[C@]4(C)[C@H]3C[C@H](OC(C)=O)[C@]12C
ADR5000 cell line [1]
  IC50: 1250 nM
CCRF-CEM
  IC50: 30 nM
[2]
  Ratio IC50: 41.8

## COc1cccc2c1C(=O)c1c(O)c3c(c(O)c1C2=O)C[C@@](O)(C(=O)CO)C[C@@H]3O[C@H]1C[C@H](N)[C@H](O)[C@H](C)O1 [DOXORUBICIN]
[2]
  Ratio IC50: 536.67

## COC(=O)CC[C@@H](C)[C@H]1CC[C@H]2[C@@H]3[C@H](OC(C)=O)C[C@@H]4C[C@@H](NC(=O)CCC(=O)O[C@@H]5O[C@@H]6O[C@@]7(C)CC[C@H]8[C@H](C)CC[C@@H]([C@H]5C)[C@@]68OO7)CC[C@]4(C)[C@H]3C[C@H](OC(C)=O)[C@]12C
ADR5000 cell line [1]
  IC50: 779 nM
CCRF-CEM
  IC50: 136 nM
[2]
  Ratio IC50: 5.7

## COC(=O)CC[C@@H](C)[C@H]1CC[C@H]2[C@@H]3[C@H](OC(C)=O)C[C@@H]4C[C@@H](OC(=O)CCC(=O)O[C@@H]5O[C@@H]6O[C@@]7(C)CC[C@H]8[C@H](C)CC[C@@H]([C@H]5C)[C@@]68OO7)CC[C@]4(C)[C@H]3C[C@H](OC(C)=O)[C@]12C
ADR5000 cell line [1]
  IC50: 1180 nM
CCRF-CEM
  IC50: 65 nM
[2]
  Ratio IC50: 18.1

## COC(=O)CC[C@@H](C)[C@H]1CC[C@H]2[C@@H]3[C@H](OC(C)=O)C[C@@H]4C[C@@H](NC(=O)C[C@H]5O[C@@H]6O[C@@]7(C)CC[C@H]8[C@H](C)CC[C@@H]([C@H]5C)[C@@]68OO7)CC[C@]4(C)[C@H]3C[C@H](OC(C)=O)[C@]12C
ADR5000 cell line [1]
  IC50: 560 nM
CCRF-CEM
  IC50: 49 nM
[2]
  Ratio IC50: 11.4

## COC(=O)CC[C@@H](C)[C@H]1CC[C@H]2[C@@H]3[C@H](OC(C)=O)C[C@@H]4C[C@H](OC(=O)CCC(=O)O[C@@H]5O[C@@H]6O[C@@]7(C)CC[C@H]8[C@H](C)CC[C@@H]([C@H]5C)[C@@]68OO7)CC[C@]4(C)[C@H]3C[C@H](OC(C)=O)[C@]12C
ADR5000 cell line [1]
  IC50: 626 nM
CCRF-CEM
  IC50: 35 nM
[2]
  Ratio IC50: 17.9
